Assay [1] deals with Chronic constriction injury (CCI) in mice. To be noted: p.o., twice per day for three weeks, cited from earlier work.
The subject of assay [2] is pain. The experiment in a line: 7 volunteer pain relief study. It counts as in vivo, human. Conditions: for Relief: single agent: Curcumin 30 mg or Hemp CBD 20 mg, formulations contain magnesium. From the text:
All of the above formulations contain magnesium. Patients received the combination of CBD and curcumin in the following formulation comprising: (a) hemp derived terpiniods and oil; (b) turmeric as curcumin and; (c) magnesium.

The mark [3] stands for this setting: chronic, but not acute, treatment 5, 15 or 45 mg/kg.

Take `COc1cc(/C=C/C(=O)CC(=O)/C=C/c2ccc(O)c(OC)c2)ccc1O` [Curcumin, curcumin]: the “spinal monoamine (or metabolite) contents” value in assay [1] (chronic treatment 5, 15 or 45 mg/kg) is given as “increasing”. Also, in assay [1] (setting [3]), the “mechanical allodynia (von Frey hair)” value was “alleviated”. Besides, in assay [1] (setting [3]), the “thermal hyperalgesia (hot plate test)” value is recorded as “alleviated”. Moreover, the Relief result is recorded as “Partial relief” in assay [2] (Subject 1, (California), joint pain); “Partial relief” in assay [2] (Subject 2, (California), migraine); “Partial relief” in assay [2] (Subject 4, (Colorado), back pain); “Partial relief” in assay [2] (Subject 5, (California), back pain). For the same compound, the pain relief entry in assay [2] (summary of the 7 volunteer study, patients taking the agents singly) is recorded as “partial pain relief”.

(Values after patent US10213391B2, “Pharmaceutical compositions comprising hemp and turmeric to treat pain and inflammation” (priority 2014, dated 2019).)
